Results as given in US4956376A, “Tetrazole carboxylic acids and esters and inhibition of blood platelet aggregation therewith” (Bristol-Myers Squibb Company, priority 1990, dated 1990).
In brackets after ≈: the same amount, converted by molar mass. Where two headings read alike, the source gives them in different places.

Test system: human platelet aggregation
Format: cell-based
Conditions: human platelet rich plasma, ADP 0.5 mcg/mL
[1] = Table 1, read-out: Inhibition of Human Platelet Aggregation of Formula I Compounds (IC50) vs. ADP
[2] = Table 2, read-out: Inhibition of Human Platelet Aggregation of Formula II Compounds (IC50) Vs ADP

| IC50 [1] | IC50 [2] | Compound |
| --- | --- | --- |
| > 32 µg/mL |  | COC(=O)CCCCCCCCn1nnc(C(c2ccccc2)c2ccccc2)n1 [Example 1, Methyl 5-(diphenylmethyl)-2H-tetrazole-2-nonanoate] |
| 4.2 µg/mL (≈ 10.7 µM) |  | O=C(O)CCCCCCCCn1nnc(C(c2ccccc2)c2ccccc2)n1 [Example 2, 5-(Diphenylmethyl)-2H-tetrazole-1-nonanoic acid] |
|  | 0.9 µg/mL (≈ 2.1 µM) | COC(=O)COc1cccc(CCn2nnc(C(c3ccccc3)c3ccccc3)n2)c1 [Example 3, Methyl [3-[2-[5-(diphenylmethyl)-2H-tetrazol-2-yl]ethyl]-phenoxy]acetate] |
|  | 1.4 µg/mL (≈ 3.38 µM) | O=C(O)COc1cccc(CCn2nnc(C(c3ccccc3)c3ccccc3)n2)c1 [Example 4, [3-[2-[5-(Diphenylmethyl)-2H-tetrazol-2-yl]ethyl]phenoxy]-acetic Acid] |
